Source: the Kinase Knowledgebase extract (Sharma et al. 2016)

Biological target: MAPK14 (human) (UniProt Q16539)
Experiment: Enzyme Assay

MAPK14 (human), sequence (Q16539 whole entry, looked up): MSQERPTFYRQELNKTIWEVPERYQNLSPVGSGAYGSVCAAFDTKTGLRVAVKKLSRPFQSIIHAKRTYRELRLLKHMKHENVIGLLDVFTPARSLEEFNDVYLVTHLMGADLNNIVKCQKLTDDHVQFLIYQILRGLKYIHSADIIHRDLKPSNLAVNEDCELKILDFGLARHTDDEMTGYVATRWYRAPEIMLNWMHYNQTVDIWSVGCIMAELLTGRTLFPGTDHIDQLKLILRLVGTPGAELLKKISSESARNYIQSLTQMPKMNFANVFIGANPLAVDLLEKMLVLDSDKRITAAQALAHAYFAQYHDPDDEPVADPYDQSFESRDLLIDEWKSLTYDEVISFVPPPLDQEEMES

SMILES	IC50 [nM]
C[C@H]1CCCCN1c1nnc2ccc(O[C@@H]3CC[C@H](NC(=O)Nc4cc(C(C)(C)C)nn4-c4cccc(CN5CCOCC5)c4)c4ccccc43)cn12	< 10
Cc1ccc(-n2nc(C(C)(C)C)cc2NC(=O)N[C@H]2CC[C@@H](Oc3ccc4nnc(N5CCCC5)n4c3)c3ccccc32)cc1	< 10
C[C@H]1CCCCN1c1nnc2ccc(O[C@@H]3CC[C@H](NC(=O)Nc4cc(C(C)(C)C)nn4CCO)c4ccccc43)cn12	< 10
Cc1ccc(-n2nc(C(C)(C)C)cc2NC(=O)N[C@H]2CC[C@@H](Oc3ccc4nnc(N(C)C)n4c3)c3ccccc32)cc1	< 10
CC(C)N(c1nnc2ccc(O[C@@H]3CC[C@H](NC(=O)Nc4cc(C(C)(C)C)nn4-c4cccc(OCCN(C)C)c4)c4ccccc43)cn12)C(C)C	< 10
Cc1ccc(-n2nc(C(C)(C)C)cc2NC(=O)N[C@H]2CC[C@@H](Oc3ccc4nnc(N5CCC(O)CC5)n4c3)c3ccccc32)cc1	< 10
Cc1ccc(-n2nc(C(C)(C)C)cc2NC(=O)N[C@H]2CC[C@@H](Oc3ccc4nnc(N5CCC(CCO)CC5)n4c3)c3ccccc32)cc1	< 10
Cc1ccc(-n2nc(C(C)(C)C)cc2NC(=O)N[C@H]2CC[C@@H](Oc3ccc4nnc(C(C)(C)N(C)C)n4c3)c3ccccc32)cc1	< 10
Cc1ccc(-n2nc(C(C)(C)C)cc2NC(=O)N[C@H]2CC[C@@H](Oc3ccc4nnc(N5CC[C@@H](CO)C5)n4c3)c3ccccc32)cc1	< 10
Cc1ccc(-n2nc(C(C)(C)C)cc2NC(=O)N[C@H]2CC[C@@H](Oc3ccc4nnc(N5CC[C@H](O)C5)n4c3)c3ccccc32)cc1	< 10
C[C@H]1CCCCN1c1nnc2ccc(O[C@@H]3CC[C@H](NC(=O)Nc4cc(C(C)(C)C)nn4-c4cccc(OCCN5CCCC5)c4)c4ccccc43)cn12	< 10
Cc1ccc(-n2nc(C(C)(C)C)cc2NC(=O)N[C@H]2CC[C@@H](Oc3ccc4nnc([C@@H]5CCCN(C)C5)n4c3)c3ccccc32)cc1	< 10
Cc1ccc(-n2nc(C(C)(C)C)cc2NC(=O)N[C@H]2CC[C@@H](Oc3ccc4nnc(N(C)CCO)n4c3)c3ccccc32)cc1	< 10
Cc1ccc(-n2nc(C(C)(C)C)cc2NC(=O)N[C@H]2CC[C@@H](Oc3ccc4nnc([C@@H]5C[C@@H](F)CN5C)n4c3)c3ccccc32)cc1	< 10
C[C@H]1CCCCN1c1nnc2ccc(O[C@@H]3CC[C@H](NC(=O)Nc4cc(C(C)(C)C)nn4-c4ccc(CN5CCCC5)cc4)c4ccccc43)cn12	< 10
CN(C)CCOc1cccc(-n2nc(C(C)(C)C)cc2NC(=O)N[C@H]2CC[C@@H](Oc3ccc4nnc(N5CC6CCC(C6)C5)n4c3)c3ccccc32)c1	< 10
Cc1ccc(-n2nc(C(C)(C)C)cc2NC(=O)N[C@H]2CC[C@@H](Oc3ccc4nnc(C5CN(C)CCN5C)n4c3)c3ccccc32)cc1 (some centres not stated)	< 10
C[C@H]1CCCCN1c1nnc2ccc(O[C@@H]3CC[C@H](NC(=O)Nc4cc(C(C)(C)C)nn4-c4cccc(CN5CCN(C)CC5)c4)c4ccccc43)cn12	< 10
CCN(C)CCc1cccc(-n2nc(C(C)(C)C)cc2NC(=O)N[C@H]2CC[C@@H](Oc3ccc4nnc(N5CCCC[C@@H]5C)n4c3)c3ccccc32)c1	< 10
Cc1ccc(-n2nc(C(C)(C)C)cc2NC(=O)N[C@H]2CC[C@@H](Oc3ccc4nnc([C@@H](C)N5CCOCC5)n4c3)c3ccccc32)cc1.Cc1ccc(-n2nc(C(C)(C)C)cc2NC(=O)N[C@H]2CC[C@@H](Oc3ccc4nnc([C@H](C)N5CCOCC5)n4c3)c3ccccc32)cc1	< 10
CC(C)(C)c1cc(NC(=O)N[C@H]2CC[C@@H](Oc3ccc4nnc(N5CCCCC5)n4c3)c3ccccc32)n(-c2cccc(CO)c2)n1	< 10
Cc1ccc(-n2nc(C(C)(C)C)cc2NC(=O)N[C@H]2CC[C@@H](Oc3ccc4nnc(N5CC[C@@H](O)C5)n4c3)c3ccccc32)cc1	< 10
Cc1ccc(-n2nc(C(C)(C)C)cc2NC(=O)N[C@H]2CC[C@@H](Oc3ccc4nnc(CC5CCN(C)CC5)n4c3)c3ccccc32)cc1	< 10
CN1CCC[C@H]1c1nnc2ccc(O[C@@H]3CC[C@H](NC(=O)Nc4cc(C(C)(C)C)nn4-c4cccc(CO)c4)c4ccccc43)cn12	< 10
C[C@@H]1CCC[C@H](C)N1c1nnc2ccc(O[C@@H]3CC[C@H](NC(=O)Nc4cc(F)cc(N5CCOCC5)c4)c4ccccc43)cn12	< 10
C[C@H]1CCCCN1c1nnc2ccc(O[C@@H]3CC[C@H](NC(=O)Nc4cc(C(C)(C)C)nn4CCN4CCN(C)CC4)c4ccccc43)cn12	< 10
C[C@@H]1CCCCN1c1nnc2ccc(O[C@@H]3CC[C@H](NC(=O)Nc4cc(C(C)(C)C)nn4-c4cccc(OCCN(C)C)c4)c4ccccc43)cn12	< 10
CC(C)(C)c1cc(NC(=O)N[C@H]2CC[C@@H](Oc3ccc4nnc(N5CCCCC5)n4c3)c3ccccc32)n(-c2cnn(CCCN3CCOCC3)c2)n1	< 10

Next, values leading:

IC50 [nM]	SMILES
< 10	COc1c(NC(=O)N[C@H]2CC[C@@H](Oc3ccc4nnc(N5CCCCC5)n4c3)c3ccccc32)cc(C(C)(C)C)cc1NS(C)(=O)=O
< 10	Cc1ccc(-n2nc(C(C)(C)C)cc2NC(=O)N[C@H]2CC[C@@H](Oc3ccc4nnc(N5CCN(CCO)CC5)n4c3)c3ccccc32)cc1
< 10	C[C@H]1CCCCN1c1nnc2ccc(O[C@@H]3CC[C@H](NC(=O)Nc4cc(C(C)(C)C)nn4-c4cccc(CCN5CCCC5)c4)c4ccccc43)cn12
< 10	Cc1ccc(-n2nc(C(C)(C)C)cc2NC(=O)N[C@H]2CC[C@@H](Oc3ccc4nnc(N(C)CCN5CCOCC5)n4c3)c3ccccc32)cc1
< 10	C[C@@H]1CCC[C@H](C)N1c1nnc2ccc(O[C@@H]3CC[C@H](NC(=O)Nc4cc(C(C)(C)C)nn4-c4cccc(CN5CCOCC5)c4)c4ccccc43)cn12
< 10	CC(C)(C)c1cc(NC(=O)N[C@H]2CC[C@@H](Oc3ccc4nnc(N5CCCCC5)n4c3)c3ccccc32)n(-c2cccc(OCCO)c2)n1
< 10	CC(C)(C)c1cc(NC(=O)N[C@H]2CC[C@@H](Oc3ccc4nnc(N5CCCCC5)n4c3)c3ccccc32)n(-c2ccc(O)cc2)n1
< 10	C[C@H]1CCCCN1c1nnc2ccc(O[C@@H]3CC[C@H](NC(=O)Nc4cc(C(C)(C)C)on4)c4ccccc43)cn12
< 10	Cc1ccc(-n2nc(C(C)(C)C)cc2NC(=O)N[C@H]2CC[C@@H](Oc3ccc4nnc(N)n4c3)c3ccccc32)cc1
< 10	Cc1ccc(-n2nc(C(C)(C)C)cc2NC(=O)N[C@H]2CC[C@@H](Oc3ccc4nnc(N5CCC[C@H](O)C5)n4c3)c3ccccc32)cc1
< 10	C[C@@H]1CCC[C@H](C)N1c1nnc2ccc(O[C@@H]3CC[C@H](NC(=O)Nc4cc(C(C)(C)C)nn4-c4cnn(CCN5CCOCC5)c4)c4ccccc43)cn12
< 10	Cc1ccc(-n2nc(C(C)(C)C)cc2NC(=O)N[C@H]2CC[C@@H](Oc3ccc4cnn(CCO)c4c3)c3ccccc32)cc1
< 10	C[C@H]1CCCCN1c1nnc2ccc(O[C@@H]3CC[C@H](NC(=O)Nc4cc(C(C)(C)C)nn4-c4ccc(CN5CCOCC5)cc4)c4ccccc43)cn12
< 10	Cc1ccc(-n2nc(C(C)(C)C)cc2NC(=O)N[C@H]2CC[C@@H](Oc3ccc4nnc(CN5CCNCC5)n4c3)c3ccccc32)cc1
< 10	CC(C)(C)c1cc(NC(=O)N[C@H]2CC[C@@H](Oc3ccc4nnc(N5CCCCC5)n4c3)c3ccccc32)n(-c2cccc(CN3CCC(O)CC3)c2)n1
< 10	C[C@H]1CCCCN1c1nnc2ccc(O[C@@H]3CC[C@H](NC(=O)Nc4cc(C(C)(C)C)nn4C)c4ccccc43)cn12
< 10	C[C@H]1CCCCN1c1nnc2ccc(O[C@@H]3CC[C@H](NC(=O)Nc4cc(C(C)(C)C)nn4-c4ccc(CN5CCN(C)CC5)cc4)c4ccccc43)cn12

IC50 [nM]	SMILES
< 10	Cc1ccc(-n2nc(C(C)(C)CO)cc2NC(=O)N[C@H]2CC[C@@H](Oc3ccc4nnc(N5CCCCC5)n4c3)c3ccccc32)cc1
< 10	CN(C)CCn1cc(-n2nc(C(C)(C)C)cc2NC(=O)N[C@H]2CC[C@@H](Oc3ccc4nnc(N5CCCCC5)n4c3)c3ccccc32)cn1
< 10	C[C@@H]1CCC[C@H](C)N1c1nnc2ccc(O[C@@H]3CC[C@H](NC(=O)Nc4cc(C(C)(C)C)nn4-c4cccc(CN5CCCC5)c4)c4ccccc43)cn12
< 10	Cc1ccc(-n2nc(C(C)(C)C)cc2NC(=O)N[C@H]2CC[C@@H](Oc3ccc4nnc(N5CCCC[C@H]5C)n4c3)c3ccccc32)cc1
< 10	CN1CCC[C@H]1c1nnc2ccc(O[C@@H]3CC[C@H](NC(=O)Nc4cc(C(C)(C)C)nn4-c4ccc(O)cc4)c4ccccc43)cn12
< 10	C[C@H]1CCCCN1c1nnc2ccc(O[C@@H]3CC[C@H](NC(=O)Nc4cc(C(C)(C)C)nn4-c4ccc(CN5CCC(F)CC5)cc4)c4ccccc43)cn12
< 10	Cc1ccc(-n2nc(C(C)(C)C)cc2NC(=O)N[C@H]2CC[C@@H](Oc3ccc4nnc([C@@H]5CCCN5C)n4c3)c3ccccc32)cc1
< 10	C[C@H]1CCCCN1c1nnc2ccc(O[C@@H]3CC[C@H](NC(=O)Nc4cc(C(C)(C)C)nn4CCN4CCCCC4)c4ccccc43)cn12
< 10	C[C@H]1CCCCN1c1nnc2ccc(O[C@@H]3CC[C@H](NC(=O)Nc4cc(C(C)(C)C)nn4-c4cccc(CN(C)C)c4)c4ccccc43)cn12
< 10	Cc1ccc(-n2nc(C(C)(C)C)cc2NC(=O)N[C@H]2CC[C@@H](Oc3ccc4nnc(N5CCC(C)(O)CC5)n4c3)c3ccccc32)cc1
< 10	Cc1ccc(-n2nc(C(C)(C)C)cc2NC(=O)N[C@H]2CC[C@@H](Oc3ccc(C#N)nc3)c3ccccc32)cc1
< 10	Cc1ccc(-n2nc(C(C)(C)C)cc2NC(=O)N[C@H]2CC[C@@H](Oc3ccc4nnc(N5CCC[C@H]5CO)n4c3)c3ccccc32)cc1
< 10	C[C@H]1CCCCN1c1nnc2ccc(O[C@@H]3CC[C@H](NC(=O)Nc4cc(C(C)(C)C)nn4-c4cccc(CCN(C)C)c4)c4ccccc43)cn12
< 10	COC1CCN(CCOc2cccc(-n3nc(C(C)(C)C)cc3NC(=O)N[C@H]3CC[C@@H](Oc4ccc5nnc(N6CCCC[C@@H]6C)n5c4)c4ccccc43)c2)CC1
< 10	C[C@H]1CCCCN1c1nnc2ccc(O[C@@H]3CC[C@H](NC(=O)Nc4cc(C(C)(C)C)nn4-c4cccc(OCCN5CCC(F)CC5)c4)c4ccccc43)cn12
< 10	Cc1ccc(-n2nc(C(C)(C)C)cc2NC(=O)N[C@H]2CC[C@@H](Oc3ccc4nnc(N5CCCN(C)CC5)n4c3)c3ccccc32)cc1
< 10	Cc1ccc(-n2nc(C(C)(C)C)cc2NC(=O)N[C@H]2CC[C@@H](Oc3ccc4nnc(N5CC[C@H](CO)C5)n4c3)c3ccccc32)cc1
